Test results published in patent US10555987B2, “GHRH agonists for the treatment of ischemic disorders” (UNIVERSITY OF MIAMI, priority 2012, dated 2020).
Non-standard residues stand in square brackets, D forms with d. Residues, ends and D or L forms follow the SMILES beside them. *: point of attachment. Phe(F5) = N[C@@H](Cc1c(F)c(F)c(F)c(F)c1F)C(=O)O; NMeY = CN[C@@H](Cc1ccc(O)cc1)C(=O)O; Agmatine = N=C(N)NCCCCN*; Nle = CCCC[C@H](N)C(=O)O; Orn = NCCC[C@H](N)C(=O)O; Abu = CC[C@H](N)C(=O)O

Experiments:
[1] = tested on: myocardial infarction (Fisher-344 rats); assay: Hemodynamic analysis (pressure-volume loops), body and heart weight after MI, compared to JI-38 (Example 15, Table 16); assay type: in vivo, rat; design: key to ESP (End-Systolic Pressure) / EDP (End-Diastolic Pressure) / ESV (End-Systolic Volume) / PRSW (Preload Recruitable Stroke Work) / Ees (End-systolic Elastance) / dP/dt max (peak rate of the pressure rise) / dP/dt max_EDV / dP/dt min / TAU (relaxation time constant calculated by Weiss method) / SV (Stroke Volume) / CO (Cardiac Output) / SW (Stroke Work) / EF / Ea/Ees / Ea (arterial Elastance): ↓: downward arrow denotes lower than JI-38; ↑: upward arrow denotes greater than JI-38; =denotes same as JI-38; ⬇⬇: double arrow denotes greater effect; ⬆⬆: double arrow denotes greater effect; settings: rat MI model, s.c. twice daily; pressure-volume loops; expressed in comparison to JI-38
Protocol: Rats were anesthetized by intramuscular injection of a mixture of ketamine (100 mg/kg), xylazine (20 mg/kg) and acepromazine (10 mg/kg). A 2-F micromanometer tipped catheter (SPR-838, Millar Instruments, Houston, Tex.) was inserted into the right carotid artery and advanced retrograde into the left ventricle. Measurements were calibrated by injecting a hypertonic saline (15%) bolus to determine extra-ventricular conductance; relative volume units were converted to actual volume using the cuvette calibration method. All analyses were performed using PVAN 3.0 software (Millar Instruments, Houston, Tex.).
Myocardial infarction (MI) was induced by permanent ligation of the left coronary artery in female 6-month-old Fisher-344 rats. Following experimental myocardial infarction (MI), rats were randomly assigned to receive either placebo, JI-38, or one of the following new analogs of GHRH: MR-30 l(P-21301), MR-303(P-21303), MR-356(P-20356), MR-502(25502), MR-350(P-20350), MR-36 l(P-20361), MR-367(P-20367), MR-403(P-27403), MR-404(P-27404), and MR-409(P-27409) (10 rats per each group). The GHRH peptide agonists were adminsistered starting 2 hours post-surgery, 1 week, 2 week, and 4 week intervals. All treatment was given subcutaneously twice daily. Cardiac performance was assessed by serial echocardiography and hemodynamic analysis derived from pressure-volume loops as described before.
The hemodynamic studies are shown in FIGS. 16-33 and the results are summarized in Table 16 (results were expressed in comparison to JI-38; downward arrow denotes lower than JI-38; upward arrow denotes greater than JI-38; =denotes same as JI-38; and double arrow denotes greater effect).

GH release = assay: In vivo endocrine activity, GH release after subcutaneous administration (Table 9); settings: rat; for GH releasing potency relative to JI-38 (=1): subcutaneous (s.c.) injection
Protocol: Subcutaneous Administration. Adult male rats were used and anesthetized with pentobarbital (6 mg/100 g, b.w.), by i.p. injection. […] Blood samples were taken from the jugular vein 5, 15 and/or 30 minutes after the injection. The blood samples were centrifuged, plasma was removed and the GH level was measured byELISA. The results are summarized in terms of potency in Table 9.

Compound | CO (Cardiac Output) [1] | EDP (End-Diastolic Pressure) [1] | EF [1] | ESP (End-Systolic Pressure) [1] | ESV (End-Systolic Volume) [1] | Ea (arterial Elastance) [1] | Ea/Ees [1] | Ees (End-systolic Elastance) [1] | PRSW (Preload Recruitable Stroke Work) [1] | SV (Stroke Volume) [1] | SW (Stroke Work) [1] | TAU (relaxation time constant calculated by Weiss method) [1] | dP/dt max (peak rate of the pressure rise) [1] | dP/dt max_EDV [1] | dP/dt min [1] | GH releasing potency relative to JI-38 (=1) (GH release; 15 min after) | GH releasing potency relative to JI-38 (=1) (GH release; 30 min after) | Stimulation of growth hormone levels after subcutaneous administration (in words) (GH release; s.c.)
CCCC[C@H](NC(=O)[C@@H](NC(=O)[C@H](CC(=O)O)NC(=O)[C@H](CCC(N)=O)NC(=O)[C@H](CC(C)C)NC(=O)[C@H](CC(C)C)NC(=O)[C@H](CCCN)NC(=O)[C@H](CCCNC(=N)N)NC(=O)[C@H](C)NC(=O)[C@H](CO)NC(=O)[C@H](CC(C)C)NC(=O)[C@H](CCC(N)=O)NC(=O)[C@H](CC)NC(=O)[C@H](CC(C)C)NC(=O)[C@@H](NC(=O)[C@H](CCCN)NC(=O)[C@H](CCCNC(=N)N)NC(=O)[C@H](Cc1ccc(O)cc1)NC(=O)[C@H](CO)NC(=O)[C@H](CCC(N)=O)NC(=O)[C@@H](NC(=O)[C@H](Cc1ccccc1)NC(=O)[C@@H](NC(=O)[C@H](C)NC(=O)[C@H](CC(=O)O)NC(=O)[C@@H](C)NC(=O)[C@H](Cc1ccc(O)cc1)NC)[C@@H](C)CC)[C@@H](C)O)C(C)C)[C@@H](C)CC)C(=O)N[C@@H](CC(=O)O)C(=O)NCCCCNC(=N)N [Peptide P-20361, [N—Me-Tyr^1, D-Ala^2, Gln^8, Orn^12, Abu^15, Orn^21, Nle^27, Asp^28, Agm^29] hGHRH (1-29)NH2] (H-[NMeY][dA]DAIFTQSYR[Orn]VL[Abu]QLSAR[Orn]LLQDI[Nle]D-Agmatine) | = | ↑ | = | ↑ | ↑ | ↑ | ↓ | ↑ | = | ↓ | ↓ | ↑ | = | ↑ | = | 1.18 | 1.50 | 
CCCC[C@H](NC(=O)[C@@H](NC(=O)[C@H](CC(=O)O)NC(=O)[C@H](CCC(N)=O)NC(=O)[C@H](CC(C)C)NC(=O)[C@H](CC(C)C)NC(=O)[C@H](CCCN)NC(=O)[C@H](CCCNC(=N)N)NC(=O)[C@H](C)NC(=O)[C@H](CO)NC(=O)[C@H](CC(C)C)NC(=O)[C@H](CCC(N)=O)NC(=O)[C@H](CC)NC(=O)[C@H](CC(C)C)NC(=O)[C@@H](NC(=O)[C@H](CCCN)NC(=O)[C@H](CCCNC(=N)N)NC(=O)[C@H](Cc1ccc(O)cc1)NC(=O)[C@H](CO)NC(=O)[C@H](CC(N)=O)NC(=O)[C@@H](NC(=O)[C@H](Cc1ccccc1)NC(=O)[C@@H](NC(=O)[C@H](C)NC(=O)[C@H](CC(=O)O)NC(=O)[C@@H](C)NC(=O)[C@H](Cc1ccc(O)cc1)NC)[C@@H](C)CC)[C@@H](C)O)C(C)C)[C@@H](C)CC)C(=O)N[C@@H](CC(=O)O)C(=O)NCCCCNC(=N)N [Peptide P-20367, [N—Me-Tyr^1, D-Ala^2, Orn^12, Abu^15, Orn^21, Nle^27, Asp^28, Agm^29]hGHRH(1-29)NH2] (H-[NMeY][dA]DAIFTNSYR[Orn]VL[Abu]QLSAR[Orn]LLQDI[Nle]D-Agmatine) | ↑ | ↑ | = | ↑ | ↑ | = | ↓ | = | = | = | ↓ | = | = | = | = | 1.12 | 2.01 | 
CCCC[C@H](NC(=O)[C@@H](NC(=O)[C@H](CC(=O)O)NC(=O)[C@H](CCC(N)=O)NC(=O)[C@H](CC(C)C)NC(=O)[C@H](CC(C)C)NC(=O)[C@H](CCCN)NC(=O)[C@H](CCCNC(=N)N)NC(=O)[C@H](C)NC(=O)[C@H](CO)NC(=O)[C@H](CC(C)C)NC(=O)[C@H](CCC(N)=O)NC(=O)[C@H](CC)NC(=O)[C@H](CC(C)C)NC(=O)[C@@H](NC(=O)[C@H](CCCN)NC(=O)[C@H](CCCNC(=N)N)NC(=O)[C@H](Cc1ccc(O)cc1)NC(=O)[C@H](CO)NC(=O)[C@H](CCC(N)=O)NC(=O)[C@@H](NC(=O)[C@H](Cc1c(F)c(F)c(F)c(F)c1F)NC(=O)[C@@H](NC(=O)[C@H](C)NC(=O)[C@H](CC(=O)O)NC(=O)[C@@H](C)NC(=O)[C@H](Cc1ccc(O)cc1)NC)[C@@H](C)CC)[C@@H](C)O)C(C)C)[C@@H](C)CC)C(=O)N[C@@H](CC(=O)O)C(=O)N[C@@H](CCCNC(=N)N)C(=O)NC [Peptide P-27404, [N—Me-Tyr^1, D-Ala^2, Fpa5^6, Orn^12, Abu^15, Orn^21, Nle^27, Asp^28]hGHRH (1-29)NH—CH3] (H-[NMeY][dA]DAI[Phe(F5)]TQSYR[Orn]VL[Abu]QLSAR[Orn]LLQDI[Nle]DR-NHMe) | ↑ | ↑ | ↑ | = | = | = | = | = | = | ↑ | = | = | = | = | = | 2.07 | 1.47 | stimulated greater growth hormone levels than hGHRH or JI-38
